Patent US20180193330A1, “ALKYLATED TETRAHYDROISOQUINOLINES FOR BINDING TO CENTRAL NERVOUS SYSTEM RECEPTORS” (Florida A&M University, priority 2017, published 2018)
Counter-ions that a name gives are not always drawn. Like-named read-outs stand apart in the source and are kept apart here.

How the values were obtained:
[1] = target: T1, 5-HT1A receptor (Homo sapiens, UniProt P08908); assay: Receptor binding affinity at 5-HT1A (NIMH-PDSP radioligand binding)
T1 sequence (P08908 1-422): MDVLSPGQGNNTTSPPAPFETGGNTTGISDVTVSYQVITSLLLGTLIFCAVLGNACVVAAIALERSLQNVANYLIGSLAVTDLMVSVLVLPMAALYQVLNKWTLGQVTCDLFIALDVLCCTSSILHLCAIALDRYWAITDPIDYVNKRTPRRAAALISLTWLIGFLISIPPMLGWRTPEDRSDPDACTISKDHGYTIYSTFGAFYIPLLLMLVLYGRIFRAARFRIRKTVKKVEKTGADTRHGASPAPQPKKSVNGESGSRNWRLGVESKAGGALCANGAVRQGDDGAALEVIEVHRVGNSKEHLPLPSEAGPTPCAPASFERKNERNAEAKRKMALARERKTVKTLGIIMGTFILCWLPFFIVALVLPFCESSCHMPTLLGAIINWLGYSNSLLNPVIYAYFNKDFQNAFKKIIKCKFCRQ

[2] = target: 5-HT7 receptor (Homo sapiens, UniProt P34969); assay: Receptor binding affinity at 5-HT7 (NIMH-PDSP radioligand binding)
[3] = target: histamine H1 receptor (Homo sapiens, UniProt P35367); assay: Receptor binding affinity at histamine H1 (NIMH-PDSP radioligand binding)
[4] = target: T2, D4 receptor (Homo sapiens, UniProt P21917); assay: Receptor binding affinity at dopamine D4 (NIMH-PDSP radioligand binding)
T2 sequence (P21917 1-419): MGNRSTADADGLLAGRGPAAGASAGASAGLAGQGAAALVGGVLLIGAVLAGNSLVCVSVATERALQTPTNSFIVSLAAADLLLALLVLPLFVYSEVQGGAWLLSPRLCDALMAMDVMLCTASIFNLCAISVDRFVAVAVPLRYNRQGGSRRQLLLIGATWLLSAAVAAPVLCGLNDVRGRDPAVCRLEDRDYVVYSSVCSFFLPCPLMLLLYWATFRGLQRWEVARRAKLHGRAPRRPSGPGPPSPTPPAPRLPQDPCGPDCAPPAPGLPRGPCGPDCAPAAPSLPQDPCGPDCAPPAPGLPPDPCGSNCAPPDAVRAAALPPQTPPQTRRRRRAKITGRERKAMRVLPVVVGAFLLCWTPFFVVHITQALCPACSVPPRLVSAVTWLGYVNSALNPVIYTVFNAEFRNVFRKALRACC

[5] = target: D2 receptor (Homo sapiens, UniProt P14416); assay: Receptor binding affinity at dopamine D2 (NIMH-PDSP radioligand binding)
[6] = target: 5-HT2B receptor (Homo sapiens, UniProt P41595); assay: Receptor binding affinity at 5-HT2B (NIMH-PDSP radioligand binding)
[7] = target: D3 receptor (Homo sapiens, UniProt P35462); assay: Receptor binding affinity at dopamine D3 (NIMH-PDSP radioligand binding)
[8] = target: 5-HT2A receptor (Homo sapiens, UniProt P28223); assay: Receptor binding affinity at 5-HT2A (NIMH-PDSP radioligand binding)
[9] = target: T3, 5-HT2C receptor (Homo sapiens, UniProt P28335); assay: Receptor binding affinity at 5-HT2C (NIMH-PDSP radioligand binding); details: for Ki: read-out: Ki 5-HT2C
T3 sequence (P28335 33-458): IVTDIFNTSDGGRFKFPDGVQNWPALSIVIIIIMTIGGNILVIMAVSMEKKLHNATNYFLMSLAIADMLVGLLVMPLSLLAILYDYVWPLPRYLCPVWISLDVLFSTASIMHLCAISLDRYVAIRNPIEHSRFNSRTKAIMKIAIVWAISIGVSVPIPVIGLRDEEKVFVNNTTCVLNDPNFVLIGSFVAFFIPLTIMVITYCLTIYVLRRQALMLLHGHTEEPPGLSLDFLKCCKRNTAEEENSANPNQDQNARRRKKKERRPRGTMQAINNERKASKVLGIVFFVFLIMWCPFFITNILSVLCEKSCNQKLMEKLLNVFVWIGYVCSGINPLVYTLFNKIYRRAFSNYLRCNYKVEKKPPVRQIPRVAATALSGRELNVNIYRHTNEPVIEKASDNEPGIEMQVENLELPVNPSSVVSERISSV

Sequence of D2 receptor (P14416 whole entry): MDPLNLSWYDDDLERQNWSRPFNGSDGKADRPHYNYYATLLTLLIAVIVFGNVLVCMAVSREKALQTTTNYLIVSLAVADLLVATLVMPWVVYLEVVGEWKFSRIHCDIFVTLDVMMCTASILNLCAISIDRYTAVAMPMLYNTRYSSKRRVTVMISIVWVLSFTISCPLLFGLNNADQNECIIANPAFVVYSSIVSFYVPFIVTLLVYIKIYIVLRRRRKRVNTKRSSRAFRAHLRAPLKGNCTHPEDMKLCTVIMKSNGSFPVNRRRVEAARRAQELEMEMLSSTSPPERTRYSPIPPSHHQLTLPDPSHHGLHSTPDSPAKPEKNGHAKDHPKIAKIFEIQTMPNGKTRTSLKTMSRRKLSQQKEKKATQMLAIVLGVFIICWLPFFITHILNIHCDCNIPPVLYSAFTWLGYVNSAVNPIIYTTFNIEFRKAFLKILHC
Sequence of D3 receptor (P35462 whole entry): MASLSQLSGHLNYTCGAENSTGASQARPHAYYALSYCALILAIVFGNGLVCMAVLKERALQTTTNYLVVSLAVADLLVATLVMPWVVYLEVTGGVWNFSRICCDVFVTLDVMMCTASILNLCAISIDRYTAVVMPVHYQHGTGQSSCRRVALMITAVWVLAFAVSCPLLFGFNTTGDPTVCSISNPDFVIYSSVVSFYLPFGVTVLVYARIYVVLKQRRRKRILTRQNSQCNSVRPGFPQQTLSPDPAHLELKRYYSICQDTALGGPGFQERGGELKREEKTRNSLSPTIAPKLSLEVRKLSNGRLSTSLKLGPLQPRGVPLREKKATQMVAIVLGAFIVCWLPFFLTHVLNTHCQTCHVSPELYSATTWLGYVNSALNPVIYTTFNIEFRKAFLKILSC
Sequence of 5-HT7 receptor (P34969 whole entry): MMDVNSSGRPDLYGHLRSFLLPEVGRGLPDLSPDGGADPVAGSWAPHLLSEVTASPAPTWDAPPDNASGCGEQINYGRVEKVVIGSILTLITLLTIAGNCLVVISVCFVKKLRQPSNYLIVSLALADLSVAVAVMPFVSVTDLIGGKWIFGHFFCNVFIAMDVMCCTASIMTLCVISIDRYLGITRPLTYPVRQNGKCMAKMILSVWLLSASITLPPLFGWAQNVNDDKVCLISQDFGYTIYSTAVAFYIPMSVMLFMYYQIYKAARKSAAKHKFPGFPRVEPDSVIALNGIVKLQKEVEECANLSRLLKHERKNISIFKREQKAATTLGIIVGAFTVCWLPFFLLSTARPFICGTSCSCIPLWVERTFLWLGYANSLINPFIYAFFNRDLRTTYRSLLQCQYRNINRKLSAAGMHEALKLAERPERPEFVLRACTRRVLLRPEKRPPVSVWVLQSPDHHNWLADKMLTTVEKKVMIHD
Sequence of 5-HT2B receptor (P41595 whole entry): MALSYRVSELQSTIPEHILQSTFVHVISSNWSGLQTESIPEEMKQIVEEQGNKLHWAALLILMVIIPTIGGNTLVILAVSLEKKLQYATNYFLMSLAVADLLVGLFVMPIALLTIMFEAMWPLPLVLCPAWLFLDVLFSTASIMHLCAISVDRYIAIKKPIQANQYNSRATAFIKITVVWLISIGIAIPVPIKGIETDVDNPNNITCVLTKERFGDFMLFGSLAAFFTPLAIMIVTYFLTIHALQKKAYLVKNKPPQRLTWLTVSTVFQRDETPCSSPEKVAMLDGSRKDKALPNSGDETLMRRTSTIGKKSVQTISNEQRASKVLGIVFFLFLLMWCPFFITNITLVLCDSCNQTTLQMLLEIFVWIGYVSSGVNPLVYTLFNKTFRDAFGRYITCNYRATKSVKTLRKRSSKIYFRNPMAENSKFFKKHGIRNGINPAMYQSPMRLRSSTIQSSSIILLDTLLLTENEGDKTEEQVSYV
Sequence of 5-HT2A receptor (P28223 whole entry): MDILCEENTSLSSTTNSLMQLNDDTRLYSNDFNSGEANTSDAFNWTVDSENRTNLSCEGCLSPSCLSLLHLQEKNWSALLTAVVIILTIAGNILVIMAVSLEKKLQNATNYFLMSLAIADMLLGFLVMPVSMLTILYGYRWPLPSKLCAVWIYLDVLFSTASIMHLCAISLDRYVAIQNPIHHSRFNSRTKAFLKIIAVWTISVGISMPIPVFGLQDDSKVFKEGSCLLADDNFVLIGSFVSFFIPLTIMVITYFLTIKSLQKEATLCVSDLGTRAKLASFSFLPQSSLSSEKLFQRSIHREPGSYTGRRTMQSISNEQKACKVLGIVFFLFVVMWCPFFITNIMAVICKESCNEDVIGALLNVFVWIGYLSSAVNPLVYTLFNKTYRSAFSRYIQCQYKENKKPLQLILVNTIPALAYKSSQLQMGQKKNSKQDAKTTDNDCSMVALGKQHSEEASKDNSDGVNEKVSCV
Sequence of histamine H1 receptor (P35367 whole entry, species assumed): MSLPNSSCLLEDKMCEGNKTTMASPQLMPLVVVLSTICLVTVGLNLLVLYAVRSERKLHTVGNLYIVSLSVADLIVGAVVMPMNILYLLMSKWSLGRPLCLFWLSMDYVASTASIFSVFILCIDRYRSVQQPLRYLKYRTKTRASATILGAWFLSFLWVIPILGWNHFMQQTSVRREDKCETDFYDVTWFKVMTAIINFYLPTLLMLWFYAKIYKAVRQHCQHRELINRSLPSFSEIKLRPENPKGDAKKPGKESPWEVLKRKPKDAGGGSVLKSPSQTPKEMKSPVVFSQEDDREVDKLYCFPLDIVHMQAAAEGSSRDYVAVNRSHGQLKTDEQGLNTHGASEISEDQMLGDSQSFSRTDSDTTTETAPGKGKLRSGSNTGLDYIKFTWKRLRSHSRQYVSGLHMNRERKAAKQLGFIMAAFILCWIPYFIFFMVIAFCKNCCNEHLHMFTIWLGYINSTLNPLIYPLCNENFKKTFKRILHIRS

In the case of `Clc1ccc(C(=CCCN2CCc3ccccc3C2)c2ccc(Cl)cc2)cc1` (as salt: HBr) [Compound 2c, 2-(4,4-Bis(4-chlorophenyl)but-3-en-1-yl)-1,2,3,4-tetrahydroisoquinineol hydrobromide], the melting point is reported as 215 to 216 °C.

In the case of `Cl.Clc1cccc2c1CN(CCCCc1nc3ccccc3s1)CC2` [Compound 1e, 2-(4-(8-Chloro-3,4-dihydroisoquinolin-2(1H)-yl)butyl)benzo[d]thiazole hydrochloride], the Ki ([1]; Table 3, Group 1 analogs) is reported as 29 nM, the “pKi ± SEM 5-HT1A” value ([1]; Table 3, Group 1 analogs) is reported as “(7.53 ± 0.08)” and the Ki ([2]; Table 3, Group 1 analogs) is reported as 45 nM. The Ki ([3]; Table 3, Group 1 analogs) was 293 nM, the “pKi ± SEM D4” value ([4]; Table 3, Group 1 analogs) was “(6.89 ± 0.08)” and the “pKi ± SEM D2” value [5] was “(6.57 ± 0.08)”. The Ki ([6]; Table 3, Group 1 analogs) was 239 nM, the Ki [7] was 31 nM and the “pKi ± SEM D3” value [7] was “(7.52 ± 0.04)”. The Ki ([8]; Table 3, Group 1 analogs) was 258 nM, the “pKi ± SEM 5-HT2A” value ([8]; Table 3, Group 1 analogs) was “(6.6 ± 0.10)” and the Ki ([9]; Table 3, Group 1 analogs) was 675 nM.

In the case of `Cl.Clc1ccc2sc(CCCCN3CCc4ccccc4C3)nc2c1` [Compound 1f, 5-Chloro-2-(4-(3,4-dihydroisoquinolin-2(1H)-yl)butyl)benzo[d]thiazole hydrochloride], the Ki ([1]; Table 3, Group 1 analogs) is reported as 15 nM, the “pKi ± SEM 5-HT1A” value ([1]; Table 3, Group 1 analogs) is reported as “(7.84 ± 0.07)” and the Ki ([2]; Table 3, Group 1 analogs) is reported as 25 nM. The melting point was 229 to 231 °C, the “pKi ± SEM H1” value ([3]; Table 3, Group 1 analogs) was “(6.61 ± 0.06)” and the Ki ([5]; Table 3, Group 1 analogs) was 138 nM. For the same compound, the Ki ([6]; Table 3, Group 1 analogs) was 16 nM, the “pKi ± SEM 5-HT2B” value ([6]; Table 3, Group 1 analogs) was “(7.81 ± 0.07)” and the Ki [7] was 447 nM. The Ki [8] was 702 nM, the “pKi ± SEM 5-HT2A” value [8] was “(6.2 ± 0.10)” and the Ki ([9]; Table 3, Group 1 analogs) was 759 nM.

For `Cl.Clc1ccc2sc(CCCCN3CCc4c(Cl)cccc4C3)nc2c1` [Compound 1g, 5-Chloro-2-(4-(5-chloro-3,4-dihydroisoquinolin-2(1H)-yl)butyl)benzo[d]thiazole hydrochloride], the “pKi ± SEM 5-HT1A” value ([1]; Table 3, Group 1 analogs) was “(7.38 ± 0.08)”, the Ki ([2]; Table 3, Group 1 analogs) was 144 nM and the melting point was 218 to 220 °C. For the same compound, the Ki [3] was 560 nM, the “pKi ± SEM D2” value ([5]; Table 3, Group 1 analogs) was “(6.07 ± 0.08)” and the Ki [6] was 327 nM. For the same compound, the “pKi ± SEM D3” value [7] was “(7.04 ± 0.05)”, the Ki ([8]; Table 3, Group 1 analogs) was 483 nM and the “pKi ± SEM 5-HT2A” value ([8]; Table 3, Group 1 analogs) was “(6.3 ± 0.1)”. For the same compound, the Ki ([9]; Table 3, Group 1 analogs) was 820 nM.

For `COc1cc2c(cc1OC)CN(CCCCc1nc3cc(Cl)ccc3s1)CC2.Cl` [Compound 1i, 5-Chloro-2-(4-(6,7-dimethoxy-3,4-dihydroisoquinolin-2(1H)-yl)butyl)benzo[d]thiazole hydrochloride], the “pKi ± SEM 5-HT1A” value ([1]; Table 3, Group 1 analogs) was “(8 ± 0.05)”, the “pKi ± SEM 5-HT7” value [2] was “(7.17 ± 0.06)” and the Ki ([3]; Table 3, Group 1 analogs) was 327 nM. For the same compound, the “pKi ± SEM D4” value ([4]; Table 3, Group 1 analogs) was “(6.57 ± 0.07)”, the “pKi ± SEM D2” value [5] was “(6.38 ± 0.09)” and the “pKi ± SEM 5-HT2B” value ([6]; Table 3, Group 1 analogs) was “(8.15 ± 0.08)”. For the same compound, the “pKi ± SEM D3” value [7] was “(5.97 ± 0.07)”, the Ki ([8]; Table 3, Group 1 analogs) was 667 nM and the “pKi ± SEM 5-HT2A” value ([8]; Table 3, Group 1 analogs) was “(6.2 ± 0.1)”. The “pKi ± SEM 5-HT2C” value ([9]; Table 3, Group 1 analogs) was “(6.48 ± 0.08)”.

For `C1=C(CCN2CCc3ccccc3C2)CCc2ccccc21` [Compound 2b, 2-(2-(3,4-dihydronaphthalen-2-yl)ethyl)-1,2,3,4-tetrahydroisoquinoline], the Ki ([1]; Table 4, Group 2 analogs) was 138 nM, the Ki ([2]; Table 4, Group 2 analogs) was 65 nM and the “pKi ± SEM 5-HT7” value ([2]; Table 4, Group 2 analogs) was “(7.18 ± 0.07)”. For the same compound, the “pKi ± SEM H1” value ([3]; Table 4, Group 2 analogs) was “(5.84 ± 0.07)”, the “pKi ± SEM D4” value ([4]; Table 4, Group 2 analogs) was “(6.85 ± 0.05)” and the Ki [6] was 126 nM. For the same compound, the Ki ([7]; Table 4, Group 2 analogs) was 184 nM, the “pKi ± SEM D3” value ([7]; Table 4, Group 2 analogs) was “(6.73 ± 0.04)” and the “pKi ± SEM 5-HT2A” value ([8]; Table 4, Group 2 analogs) was “(6.01 ± 0.09)”. For the same compound, the “pKi ± SEM 5-HT2C” value ([9]; Table 4, Group 2 analogs) was “(5.54 ± 0.07)”.

For `O=C(CCCN1CCCc2ccccc21)c1ccc(Cl)cc1` [Compound 3c, 1-(4-Chlorophenyl)-4-(3,4-dihydroquinolin-1(2H)-yl) butan-1-one], the melting point was 192 to 193 °C and the Ki [9] was greater than 10000 nM.

`Cl.O=C(CCCN1CCCCc2ccccc21)c1ccc(Cl)cc1` [Compound 3d, 1-(4-Chlorophenyl)-4-(2,3,4,5-tetrahydro-1H-benzo[b]azepin-1-yl)butan-1-one hydrochloride] gave a melting point of 192 to 193 °C.
